This is an account of results in ChEMBL document CHEMBL1201862, “PubChem BioAssay data set” (2004).

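Test compounds were applied to cells in 96-well plates for 48 hours at 5 doses. GI50 = concentration required for 50% inhibition of growth.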 The source made the active and inactive calls. No stated cut-off is given here; in the data, active = GI50 up to about 1.1 µM and inactive = higher.

Test systems include SN12C; HCT-116; SF-268; NCI-H460; OVCAR-5; OVCAR-8; SW-620; IGROV-1; HCC 2998; CCRF-CEM; HL-60; ACHN; EKVX; UO-31; TK-10; CAKI-1; UACC-62; COLO 205; Malme-3M; MDA-N.
Common to all, as to assay: growth of human tumour cells (NCI), 48 h

Turning to `O=C1OC(c2cccc(C(F)(F)F)c2)c2ccc3ccccc3c21` (configuration not stated), the GI50 with SN12C, in the assay on HCT-116, with SF-268, in the assay on NCI-H460, in the assay with OVCAR-5 and in the assay on OVCAR-8 was > 10 µM (inactive) throughout. In addition, the GI50 in the assay with SW-620 was > 10 µM (inactive); in the assay with IGROV-1, > 10 µM (inactive); with HCC 2998, > 10 µM (inactive); with CCRF-CEM it was 9.06 µM (inactive); in the assay on HL-60, 5.5 µM (inactive); with ACHN it was > 10 µM (inactive). The GI50 with EKVX is > 10 µM (inactive); in the assay on UO-31 it was 9.68 µM (inactive); with TK-10 it was > 10 µM (inactive); in the assay with CAKI-1, > 10 µM (inactive); in the assay on UACC-62, 7.41 µM (inactive); with COLO 205, > 10 µM (inactive). Also, the GI50 in the assay on Malme-3M is > 10 µM (inactive).

For `NC(=S)N/C=C1\C(=O)Oc2ccccc2C1=O`, the GI50 was 37.2 µM (inactive) in the assay with SN12C; 53.5 µM (inactive) in the assay on HCT-116; 24.7 µM (inactive) in the assay with SF-268; > 100 µM (inactive) in the assay with NCI-H460; > 100 µM (inactive) in the assay with OVCAR-5; 56.5 µM (inactive) with OVCAR-8. For the same compound, the GI50 in the assay on SW-620 was 75.5 µM (inactive); in the assay with IGROV-1, 63.4 µM (inactive); in the assay on HCC 2998, 66.8 µM (inactive); in the assay with CCRF-CEM, > 100 µM (inactive); with HL-60, > 100 µM (inactive); in the assay with ACHN, 28.9 µM (inactive). Moreover, the GI50 was > 100 µM (inactive) in the assay with EKVX; 27.5 µM (inactive) in the assay on UO-31; 90.4 µM (inactive) in the assay on TK-10; 20.7 µM (inactive) with CAKI-1; 47.2 µM (inactive) in the assay with UACC-62; > 100 µM (inactive) with COLO 205. Also, the GI50 in the assay on Malme-3M is 32.7 µM (inactive).

Regarding `O=C(Nc1cc(Cl)c(Cl)cc1Cl)C(=O)C1C=CCS1(=O)=O` (configuration not stated), the GI50 is 93.5 µM (inactive) in the assay on SN12C; > 100 µM (inactive) in the assay on HCT-116; > 100 µM (inactive) in the assay on SF-268; > 100 µM (inactive) in the assay on NCI-H460; > 100 µM (inactive) with OVCAR-5; > 100 µM (inactive) with OVCAR-8. The GI50 in the assay on SW-620, with IGROV-1, in the assay on HCC 2998, with CCRF-CEM, in the assay on HL-60 and in the assay with ACHN was > 100 µM (inactive) throughout. For the same compound, the GI50 in the assay with EKVX, in the assay on UO-31, with TK-10, with CAKI-1, in the assay on UACC-62 and in the assay on COLO 205 was > 100 µM (inactive) in each case. The GI50 in the assay on Malme-3M was > 100 µM (inactive).

With `O=[N+]([O-])c1ccc(/C=N/C2CCCCC2)cc1`, the GI50 in the assay with SN12C, in the assay with HCT-116, with SF-268, in the assay with NCI-H460, in the assay on OVCAR-5 and in the assay with OVCAR-8 was > 100 µM (inactive) each time. The GI50 in the assay with SW-620, in the assay on IGROV-1, in the assay with HCC 2998, in the assay with CCRF-CEM, in the assay on HL-60 and in the assay with ACHN was > 100 µM (inactive) in each case. The GI50 in the assay on EKVX, with UO-31, with TK-10, with CAKI-1, with UACC-62 and with COLO 205 was > 100 µM (inactive) each time. In addition, the GI50 in the assay on Malme-3M is > 100 µM (inactive).

In the case of `CCC(C)(O)c1cn(-c2cccc(S(=O)(=O)O)c2)nn1` (configuration not stated), the GI50 in the assay on SN12C, in the assay on HCT-116, in the assay with SF-268, in the assay on NCI-H460, in the assay with OVCAR-5 and in the assay on OVCAR-8 was > 100 µM (inactive) in each case. Further, the GI50 with SW-620, in the assay with IGROV-1, in the assay on HCC 2998, with CCRF-CEM, in the assay with HL-60 and in the assay on ACHN was > 100 µM (inactive) throughout. The GI50 in the assay on EKVX, in the assay on UO-31, in the assay on TK-10, in the assay on CAKI-1, in the assay with UACC-62 and in the assay on COLO 205 was > 100 µM (inactive) each time. The GI50 in the assay with Malme-3M is > 100 µM (inactive).

On to `COc1ccc(-c2nc(N)nc(-c3cc(C)ccc3O)c2Cl)cc1`, for which the GI50 in the assay on SN12C was 76.7 µM (inactive); in the assay on HCT-116, 39.5 µM (inactive); in the assay with SF-268, 26.4 µM (inactive); in the assay on NCI-H460, 38.3 µM (inactive); in the assay on OVCAR-5 it was > 100 µM (inactive); in the assay on OVCAR-8, 43.2 µM (inactive). The GI50 in the assay with SW-620 was > 100 µM (inactive); in the assay with IGROV-1, > 100 µM (inactive); in the assay on HCC 2998, > 100 µM (inactive); with CCRF-CEM, > 100 µM (inactive); in the assay with HL-60, > 100 µM (inactive); in the assay on ACHN it was 47.2 µM (inactive). Further, the GI50 in the assay on EKVX is 20.3 µM (inactive); with UO-31, 26.7 µM (inactive); in the assay on TK-10 it was 32.7 µM (inactive); in the assay with CAKI-1 it was 91.4 µM (inactive); with UACC-62 it was 29 µM (inactive); in the assay on COLO 205, > 100 µM (inactive). Moreover, the GI50 with Malme-3M is 31.8 µM (inactive).

Take `CCCCCCC(/C=N/O)C(C)(O)CCC` (configuration not stated): the GI50 with SN12C was > 100 µM (inactive); in the assay on HCT-116, 91.4 µM (inactive); in the assay on SF-268, > 100 µM (inactive); in the assay with NCI-H460, > 100 µM (inactive); in the assay with OVCAR-5, > 100 µM (inactive); in the assay with OVCAR-8 it was > 100 µM (inactive). For the same compound, the GI50 was > 100 µM (inactive) in the assay on SW-620; > 100 µM (inactive) in the assay on IGROV-1; > 100 µM (inactive) in the assay with HCC 2998; > 100 µM (inactive) with CCRF-CEM; 67.9 µM (inactive) in the assay with HL-60; > 100 µM (inactive) in the assay on ACHN. Besides, the GI50 with EKVX, with UO-31, with TK-10, with CAKI-1, in the assay on UACC-62 and in the assay on COLO 205 was > 100 µM (inactive) each time. For the same compound, the GI50 in the assay on Malme-3M was > 100 µM (inactive).

For `COc1cccc(C2c3cc4c(cc3OC(N3CCCC3)C2C)OCO4)c1OC` (configuration not stated), the GI50 with SN12C was 3.02 µM (inactive); in the assay with HCT-116 it was 1.64 µM (inactive); with SF-268 it was 2.89 µM (inactive); in the assay with NCI-H460, 3.17 µM (inactive); in the assay on OVCAR-5, 3.67 µM (inactive); in the assay on OVCAR-8 it was 2.96 µM (inactive). Further, the GI50 was 1.65 µM (inactive) in the assay on SW-620; 2.78 µM (inactive) in the assay on IGROV-1; 2.77 µM (inactive) with CCRF-CEM; 2.49 µM (inactive) in the assay with ACHN; 4.76 µM (inactive) in the assay with MDA-N; 6.49 µM (inactive) with EKVX. Further, the GI50 in the assay on UO-31 was 2.27 µM (inactive); in the assay on TK-10 it was 5.74 µM (inactive); in the assay with CAKI-1, 0.561 µM (active); in the assay with UACC-62 it was 5.78 µM (inactive); in the assay on COLO 205, 3.46 µM (inactive).

As to `COC(=O)C(C(=O)C(=O)Nc1nnc(S)[nH]1)c1csc(N)n1` (configuration not stated), the GI50 in the assay with SN12C, in the assay on HCT-116, in the assay with SF-268, in the assay on NCI-H460, in the assay on OVCAR-5 and in the assay with OVCAR-8 was > 100 µM (inactive) in each case. The GI50 in the assay on SW-620, in the assay with IGROV-1, with HCC 2998, in the assay with CCRF-CEM, in the assay with HL-60 and with ACHN was > 100 µM (inactive) in each case. The GI50 in the assay with EKVX, with UO-31, in the assay on TK-10, with CAKI-1, with UACC-62 and in the assay with COLO 205 was > 100 µM (inactive) each time. The GI50 in the assay with Malme-3M was > 100 µM (inactive).

`COc1cc(/C=N\O[Si](C)(C)C(C)(C)C)ccc1O[Si](C)(C)C(C)(C)C`: the GI50 in the assay on SN12C was > 100 µM (inactive); in the assay with HCT-116 it was 32.4 µM (inactive); in the assay with SF-268, 67.9 µM (inactive); in the assay with NCI-H460, > 100 µM (inactive); in the assay with OVCAR-5 it was 33.7 µM (inactive); in the assay on OVCAR-8, 64.1 µM (inactive). Further, the GI50 is > 100 µM (inactive) with SW-620; > 100 µM (inactive) in the assay on IGROV-1; 24.5 µM (inactive) in the assay with HCC 2998; 42.9 µM (inactive) with CCRF-CEM; 37.8 µM (inactive) with HL-60; 51.4 µM (inactive) with ACHN. Moreover, the GI50 with EKVX, in the assay with UO-31, with TK-10, with CAKI-1, with UACC-62 and in the assay on COLO 205 was > 100 µM (inactive) throughout. For the same compound, the GI50 in the assay on Malme-3M was > 100 µM (inactive).

Consider `CCOC(=O)CC1(C(=O)OCC)c2[nH]c3ccccc3c2CCN1Cc1ccccc1` (configuration not stated), for which the GI50 is 14.2 µM (inactive) in the assay with SN12C; 17 µM (inactive) with HCT-116; 20.2 µM (inactive) with SF-268; 19 µM (inactive) in the assay with NCI-H460; 20.5 µM (inactive) in the assay on OVCAR-5; 23.7 µM (inactive) in the assay on OVCAR-8. Also, the GI50 in the assay on SW-620 is 31.7 µM (inactive); in the assay on IGROV-1, 18.3 µM (inactive); in the assay with HCC 2998, 13.7 µM (inactive); in the assay on CCRF-CEM it was 23.7 µM (inactive); with HL-60 it was 21.6 µM (inactive); in the assay on ACHN, 21.2 µM (inactive). Moreover, the GI50 in the assay on EKVX is 21.8 µM (inactive); in the assay with UO-31 it was 18.4 µM (inactive); in the assay on TK-10 it was 31.2 µM (inactive); in the assay on CAKI-1, 31 µM (inactive); in the assay on UACC-62, 17.1 µM (inactive); with COLO 205, 16.7 µM (inactive). In addition, the GI50 with Malme-3M was 17.8 µM (inactive).
